# According to article PMC10891214, “Effects of food and ethnicity on the pharmacokinetics of venadaparib, a next-generation PARP inhibitor, in healthy Korean, Caucasian, and Chinese male subjects” (Investigational New Drugs, 2023):
# How the values were obtained:
# [1] = Pharmacokinetics after a single oral administration of venadaparib 80 mg (fasted or fed state) in healthy male subjects; type: in vivo, human; conditions: for AUCinf / AUClast / CL/F / Cmax / Vd/F / t1/2 / Tmax: 80 mg single oral; for AUCinf / AUClast / CL/F / Cmax / Vd/F / t1/2: mean ± SD; for Tmax: median (minimum–maximum); for AUCinf geometric mean ratio (90% confidence interval) / AUClast geometric mean ratio (90% confidence interval) / Cmax geometric mean ratio (90% confidence interval): fed to fasted state
# Protocol: A randomized, open-label, single-dose, two-sequence, and two-period crossover study was conducted with 12 Korean and 12 Caucasian subjects. Subjects in each ethnic group were randomly assigned to one of the two sequences at a ratio of 1:1 (Fig. 1). The subjects were orally administered 80 mg of venadaparib in each treatment period (fasted or fed state), following an overnight fast of at least 10 h. There was a seven-day washout between the two treatment periods. In the fed state, the subjects consumed an entire high-fat meal (total of 800–1000 kcal, fat of 500–600 kcal) within 20 min and were subsequently administered the study drug with 240 mL of water 30 min after the start of the meal. An open-label, single-dose study was conducted on 12 Chinese subjects who received 80 mg of venadaparib only in the fasted state (Fig. 1).
# Based on the PK results of venadaparib in a previous study (NCT03317743), serial blood samples for the PK analysis of venadaparib were collected at 0 (pre-dose), 0.25, 0.5, 1, 2, 3, 4, 6, 8, 10, 12, 24, 36, 48, and 72 h post-dose for all treatment and ethnic groups. The blood samples were collected in a K2-ethylenediaminetetraacetic acid (EDTA) vacutainer, centrifuged at 4 ℃ and 3000 rpm for 10 min, and stored at − 70 ℃ until analysis.
# Plasma concentrations of venadaparib were determined using validated high-performance liquid chromatography (Exion LC, AB Sciex) coupled with mass spectrometry (Triple Quad 5500+, AB Sciex). Venadaparib as an analyte and olaparib as the internal standard were separated using a Gemini 3 μm NX-C18 110 Å (100 × 3 mm) column (Phenomenex, CA, USA) at 40 ℃. The mobile phase comprised 0.1% formic acid in distilled water and 100% acetonitrile at a flow rate of 0.3 mL/minute. Venadaparib and olaparib were detected with a turbo-ion spray in positive ionization mode at an m/z transition of 407.2 → 70.0 and 435.2 → 281.1, respectively.
# The calibration curve for venadaparib ranged from 5 to 5000 μg/L, with precision and accuracy ranging from 1.89 to 4.00% and 92.98 to 102.80%, respectively. For the quality control sample data of venadaparib, the precision and accuracy ranged from 4.38 to 5.18% and 96.75 to 102.59%, respectively.
# The PK parameters of venadaparib were calculated by a non-compartmental method using Phoenix WinNonlin software version 8.3.4 (Certara, NJ, USA). The area under the plasma concentration-time curve (AUC) was determined using the linear-up log-down trapezoidal method. The primary PK parameters were Cmax and AUC from time zero to the last measurable time point (AUClast) for comparison between the exposures to the effects of food and ethnicity. The following secondary PK parameters were calculated: AUC from time zero to infinity (AUCinf), time to reach Cmax (Tmax), t1/2, apparent total clearance (CL/F), and apparent volume of distribution (Vd/F).
# Statistical analyses were conducted using SAS software version 9.4 (SAS Institute Inc., NC, USA). The primary PK parameters in the fed and fasted states were compared by estimating the geometric mean ratios and 90% confidence intervals using a linear mixed-effects model. The model included the sequence, period, and treatment as fixed effects, and the subject nested within the sequence as a random effect. Analysis of variance (ANOVA) tests were conducted to assess possible differences in the values of the primary PK parameters among the ethnic groups in the fasted state.
# PARP5 = test system: PARP5; set-up: method as in PMID 36808277; conditions: cited from earlier work
# cytochrome P450 3A4 = test system: cytochrome P450 3A4; set-up: method as in data on file; conditions: in vitro phenotyping study; ref data on file; cited from earlier work
# [2] = Caucasian, fasted state (N = 12)
compound,measurement,setting,value
O=C(c1cc(Cc2n[nH]c(=O)c3ccccc23)ccc1F)N1CC(CNC2CC2)C1 [venadaparib],AUCinf,[1]; [2],14202.62 ± 4352.38 ng·h/mL
same,AUClast,[1]; [2],14091.32 ± 4285.15 ng·h/mL
same,CL/F,[1]; [2],6.10 ± 1.73 L/h
same,Cmax,[1]; [2],2392.29 ± 464.48 ng/mL
same,Vd/F,[1]; [2],72.52 ± 18.25 L
same,t1/2,[1]; [2],9.32 ± 4.98 h
same,Tmax,[1]; [2],0.50 (0.50–2.00) h
same,AUCinf,"[1]; Caucasian, fed state (N = 12)",13752.20 ± 4522.49 ng·h/mL
same,AUClast,"[1]; Caucasian, fed state (N = 12)",13557.03 ± 4401.60 ng·h/mL
same,CL/F,"[1]; Caucasian, fed state (N = 12)",6.33 ± 1.78 L/h
same,Cmax,"[1]; Caucasian, fed state (N = 12)",1894.30 ± 602.49 ng/mL
same,Vd/F,"[1]; Caucasian, fed state (N = 12)",124.29 ± 71.28 L
same,t1/2,"[1]; Caucasian, fed state (N = 12)",14.16 ± 7.16 h
same,Tmax,"[1]; Caucasian, fed state (N = 12)",2.00 (1.00–4.00) h
same,AUCinf geometric mean ratio (90% confidence interval),"[1]; Caucasian, 80 mg",0.96 (0.9074–1.0260)
same,AUClast geometric mean ratio (90% confidence interval),"[1]; Caucasian, 80 mg",0.96 (0.9017–1.0186)
same,Cmax geometric mean ratio (90% confidence interval),"[1]; Caucasian, 80 mg",0.77 (0.6871–0.8609)
same,Decrease of Cmax in the fed state compared with the fasted state,"[1]; Caucasians, 80 mg",23%
same,AUCinf,"[1]; Chinese, fasted state (N = 12)",14981.87 ± 4276.66 ng·h/mL
same,AUClast,"[1]; Chinese, fasted state (N = 12)",14878.51 ± 4254.97 ng·h/mL
same,CL/F,"[1]; Chinese, fasted state (N = 12)",5.84 ± 2.02 L/h
same,Cmax,"[1]; Chinese, fasted state (N = 12)",2390.12 ± 576.02 ng/mL
same,Vd/F,"[1]; Chinese, fasted state (N = 12)",53.23 ± 20.51 L
same,t1/2,"[1]; Chinese, fasted state (N = 12)",6.95 ± 4.18 h
same,Tmax,"[1]; Chinese, fasted state (N = 12)",1.00 (0.50–2.00) h
same,AUCinf,"[1]; Korean, fasted state (N = 12)",12453.18 ± 3565.66 ng·h/mL
same,AUClast,"[1]; Korean, fasted state (N = 12)",12347.13 ± 3514.30 ng·h/mL
same,CL/F,"[1]; Korean, fasted state (N = 12)",6.92 ± 1.95 L/h
same,Cmax,"[1]; Korean, fasted state (N = 12)",2165.59 ± 446.08 ng/mL
same,Vd/F,"[1]; Korean, fasted state (N = 12)",83.84 ± 48.70 L
same,t1/2,"[1]; Korean, fasted state (N = 12)",9.06 ± 6.08 h
same,Tmax,"[1]; Korean, fasted state (N = 12)",0.50 (0.50–2.00) h
same,AUCinf,"[1]; Korean, fed state (N = 12)",13108.90 ± 5771.31 ng·h/mL
same,AUClast,"[1]; Korean, fed state (N = 12)",12972.02 ± 5734.25 ng·h/mL
same,CL/F,"[1]; Korean, fed state (N = 12)",6.95 ± 2.29 L/h
same,Cmax,"[1]; Korean, fed state (N = 12)",1835.01 ± 637.11 ng/mL
same,Vd/F,"[1]; Korean, fed state (N = 12)",104.18 ± 57.31 L
same,t1/2,"[1]; Korean, fed state (N = 12)",10.80 ± 5.10 h
same,Tmax,"[1]; Korean, fed state (N = 12)",2.00 (0.50–4.00) h
same,AUCinf geometric mean ratio (90% confidence interval),"[1]; Korean, 80 mg",1.02 (0.9126–1.1360)
same,AUClast geometric mean ratio (90% confidence interval),"[1]; Korean, 80 mg",1.02 (0.9088–1.1339)
same,Cmax geometric mean ratio (90% confidence interval),"[1]; Korean, 80 mg",0.82 (0.7457–0.9094)
same,Reduction of peak concentrations after a high-fat meal,"[1]; Koreans and Caucasians, 80 mg",approximately 20%
same,Decrease of Cmax in the fed state compared with the fasted state,"[1]; Koreans, 80 mg",18%
same,"PK profiles among the Korean, Caucasian, and Chinese subjects","[1]; fasted state, 80 mg",comparable
same,Effect of the high-fat meal on overall systemic exposure,"[1]; fed vs fasted state, 80 mg",not significantly affected
same,IC50 compared with those of olaparib,PARP5,higher
same,Enzyme primarily metabolizing the drug,cytochrome P450 3A4,cytochrome P450 3A4
